Earlier results in US20070071809A1, “Ginger containing compositions to control pain” (priority 2005, published 2007).

Test system: osteoarthritis of the knee
Settings: 1500 mg per day

## N[C@H]1C(O)O[C@H](CO)[C@@H](O)[C@@H]1O (some centres unmarked) [Glucosamine]
212 patients, half glucosamine, half placebo
  knee pain in patients with osteoarthritis of the knee: reduce knee pain
Placebo group had worsened pain scores
  pain scores versus placebo group: statistically improved pain scores
